# “Also recorded” adds a separate entry of the source.
# Assays:
# [1] = system: SGC-7901 (human gastric cancer cell line); assay: MTT in vitro cytotoxicity assay, SGC-7901; format: cell-based; settings: for IC50: SGC-7901, Table 3, MTT, mean ± S.D.; for inhibition at 100 µM: SGC-7901, at 100 µM, read-out: Cell growth inhibition (%) SGC-7901
# Description: (§1) The lead molecules A2 and all newly prepared diarylamine derivatives B1-13 and C1-11 were evaluated for their in vitro cytotoxic effects against SGC-7901, A875, HepG2 and MARC145 cell lines by the classical MTT [3-(4,5-dimethylthiazol-2-yl)-2,5-diphenyl tetrazolium bromide] assay ([Alley et al., 1988]; [Ke et al., 2012]; [Shi et al., 2012]; [Yu et al., 2015]; [Ke et al., 2019]; [Xu et al., 2019]; [Huang et al., 2021]) using 5-FU (5-Fluorouracil) as a control.
# (§2) The cytotoxicity of target compounds was determined with MTT assay ([Alley et al., 1988]; [Ke et al., 2012]; [Shi et al., 2012]; [Yu et al., 2015]; [Ke et al., 2019]; [Xu et al., 2019]; [Huang et al., 2021]). SGC-7901, A875, HepG2 and MARC145 cell lines were obtained from Hubei Biopesticide Engineering Research Centre. All data of the experiment were analyzed with SPSS software, and all assay were performed in triplicate on three independent experiments, and measurement data were expressed as the mean ± S.D.
# (§3) The in vitro cytotoxicity of the synthesized compounds against different cell lines (SGC-7901, A875, HepG2 and MARC145) was measured with MTT assay. All the data of the experiment were analyzed with SPSS software, and the 50% inhibitory concentrations (IC50) of each compound for the different cell lines were determined. A control was run for each test, and all assays were performed in triplicate on three independent experiments, and measurement data were expressed as the mean ± S.D.
# [2] = system: HepG2 (human hepatocellular liver carcinoma cell line); assay: MTT in vitro cytotoxicity assay, HepG2; format: cell-based; settings: for IC50: HepG2, Table 3, MTT, mean ± S.D.; for inhibition at 100 µM: HepG2, at 100 µM, read-out: Cell growth inhibition (%) HepG2
# Description: as §1, §2, §3
# [3] = system: SGC-7901, A875, HepG2 and MARC145 cell lines; assay: MTT in vitro cytotoxicity assay, statements over the whole cell panel; format: cell-based; settings: for cytotoxic effect / inhibition activity in words: IC50-based judgement, compared with 5-FU; for inhibition activity in preliminary screening, in words: at 100 µM, inhibition rate higher than control 5-FU
# Description: as §1, §2, §3
# [4] = target: AKT1 (Homo sapiens, UniProt P31749); assay: ADP-GLO kinase inhibitory assay, AKT1; format: biochemical
# AKT1, sequence (P31749 whole entry, species assumed): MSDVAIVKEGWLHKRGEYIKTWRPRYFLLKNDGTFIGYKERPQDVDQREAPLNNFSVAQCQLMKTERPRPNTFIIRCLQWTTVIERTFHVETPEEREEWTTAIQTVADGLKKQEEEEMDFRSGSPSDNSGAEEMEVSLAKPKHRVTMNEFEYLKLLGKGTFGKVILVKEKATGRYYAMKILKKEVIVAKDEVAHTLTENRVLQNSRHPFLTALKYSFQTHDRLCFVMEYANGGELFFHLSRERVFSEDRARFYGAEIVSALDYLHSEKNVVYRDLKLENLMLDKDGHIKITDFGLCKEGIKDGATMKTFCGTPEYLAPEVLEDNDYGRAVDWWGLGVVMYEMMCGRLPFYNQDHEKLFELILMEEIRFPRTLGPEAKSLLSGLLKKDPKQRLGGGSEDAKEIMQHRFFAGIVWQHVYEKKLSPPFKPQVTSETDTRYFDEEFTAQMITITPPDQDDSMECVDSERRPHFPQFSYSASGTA
# Description: (§4) Based on the aforementioned results for the potential mechanism of action, the kinase inhibitory profile of compounds C6 and C11 were screened at two dose concentration of 10 and 1 µM over a panel of 15 kinases, and the kinase inhibitory activities are listed in supporting information (Supplementary Table S1).
# (§5) The kinase inhibitory profile of compounds C6 and C11 were screened at two dose concentration of 10 and 1 µM over a panel of 15 kinases, and each assay was repeated twice. All the inhibitory assays were carried out through kinase profiling services provided by HY Biotech (Chinese), in which ADP-GLO kinase assays were used.
# as §5, with “10 µM” for “10”
# [5] = target: T1, CHK1 (Homo sapiens, UniProt O14757); assay: ADP-GLO kinase inhibitory assay, CHK1; format: biochemical
# T1 sequence (O14757 1-476): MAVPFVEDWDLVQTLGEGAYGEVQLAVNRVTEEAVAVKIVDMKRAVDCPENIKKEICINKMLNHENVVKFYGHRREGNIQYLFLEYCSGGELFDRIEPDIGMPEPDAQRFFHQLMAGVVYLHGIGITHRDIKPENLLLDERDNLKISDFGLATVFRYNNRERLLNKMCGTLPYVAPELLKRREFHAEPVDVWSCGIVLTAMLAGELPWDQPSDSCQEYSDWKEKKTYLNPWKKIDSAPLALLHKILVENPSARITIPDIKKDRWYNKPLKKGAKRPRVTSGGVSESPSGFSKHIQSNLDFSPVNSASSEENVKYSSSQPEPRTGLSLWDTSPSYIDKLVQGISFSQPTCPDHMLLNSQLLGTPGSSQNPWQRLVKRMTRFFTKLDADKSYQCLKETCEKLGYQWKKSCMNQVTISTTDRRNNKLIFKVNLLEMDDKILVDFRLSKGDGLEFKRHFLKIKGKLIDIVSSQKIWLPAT
# Description: as §4, §5
# as §5, with “10 µM” for “10”
# [6] = target: CDK1/A2 (Homo sapiens, UniProt P06493); assay: ADP-GLO kinase inhibitory assay, CDK1/A2; format: biochemical
# Description: as §4, §5
# as §5, with “10 µM” for “10”
# [7] = target: MAPK1 (Homo sapiens, UniProt P28482); assay: ADP-GLO kinase inhibitory assay, MAPK1; format: biochemical; settings: for inhibition of MAPK1, in words: at 1 μM
# MAPK1, sequence (P28482 whole entry, species assumed): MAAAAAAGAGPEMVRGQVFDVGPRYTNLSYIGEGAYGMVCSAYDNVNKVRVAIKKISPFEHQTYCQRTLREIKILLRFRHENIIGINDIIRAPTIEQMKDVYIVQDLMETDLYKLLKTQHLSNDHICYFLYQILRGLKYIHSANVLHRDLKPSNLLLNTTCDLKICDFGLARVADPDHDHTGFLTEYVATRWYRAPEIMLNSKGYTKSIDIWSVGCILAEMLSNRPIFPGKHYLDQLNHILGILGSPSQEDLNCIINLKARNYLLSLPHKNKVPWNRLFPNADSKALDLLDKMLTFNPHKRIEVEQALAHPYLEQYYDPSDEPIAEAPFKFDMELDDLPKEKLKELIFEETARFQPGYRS
# Description: as §4, §5
# as §5, with “10 µM” for “10”
# [8] = system: AURORA; assay: ADP-GLO kinase inhibitory assay, AURORA; format: biochemical
# Description: as §4, §5
# as §5, with “10 µM” for “10”
# [9] = target: CDK2/A2 (Homo sapiens, UniProt P24941); assay: ADP-GLO kinase inhibitory assay, CDK2/A2; format: biochemical; settings: for inhibition of CDK2/A2, in words: at 1 μM
# Description: as §4, §5
# as §5, with “10 µM” for “10”
# [10] = target: ERK1 (Homo sapiens, UniProt P27361); assay: ADP-GLO kinase inhibitory assay, ERK1; format: biochemical
# ERK1, sequence (P27361 whole entry, species assumed): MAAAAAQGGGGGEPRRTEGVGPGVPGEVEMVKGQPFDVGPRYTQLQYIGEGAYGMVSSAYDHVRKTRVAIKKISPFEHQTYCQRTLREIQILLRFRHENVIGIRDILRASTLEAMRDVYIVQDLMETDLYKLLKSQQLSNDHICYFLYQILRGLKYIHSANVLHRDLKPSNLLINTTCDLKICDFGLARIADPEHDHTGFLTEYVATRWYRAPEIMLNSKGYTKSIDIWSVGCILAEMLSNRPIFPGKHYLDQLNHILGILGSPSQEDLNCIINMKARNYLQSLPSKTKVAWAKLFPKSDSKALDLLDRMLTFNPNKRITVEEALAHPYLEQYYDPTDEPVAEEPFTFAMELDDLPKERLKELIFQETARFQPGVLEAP
# Description: as §4, §5
# as §5, with “10 µM” for “10”
# [11] = target: RIPK3 (Homo sapiens, UniProt Q9Y572); assay: ADP-GLO kinase inhibitory assay, RIPK3; format: biochemical
# RIPK3, sequence (Q9Y572 whole entry, species assumed): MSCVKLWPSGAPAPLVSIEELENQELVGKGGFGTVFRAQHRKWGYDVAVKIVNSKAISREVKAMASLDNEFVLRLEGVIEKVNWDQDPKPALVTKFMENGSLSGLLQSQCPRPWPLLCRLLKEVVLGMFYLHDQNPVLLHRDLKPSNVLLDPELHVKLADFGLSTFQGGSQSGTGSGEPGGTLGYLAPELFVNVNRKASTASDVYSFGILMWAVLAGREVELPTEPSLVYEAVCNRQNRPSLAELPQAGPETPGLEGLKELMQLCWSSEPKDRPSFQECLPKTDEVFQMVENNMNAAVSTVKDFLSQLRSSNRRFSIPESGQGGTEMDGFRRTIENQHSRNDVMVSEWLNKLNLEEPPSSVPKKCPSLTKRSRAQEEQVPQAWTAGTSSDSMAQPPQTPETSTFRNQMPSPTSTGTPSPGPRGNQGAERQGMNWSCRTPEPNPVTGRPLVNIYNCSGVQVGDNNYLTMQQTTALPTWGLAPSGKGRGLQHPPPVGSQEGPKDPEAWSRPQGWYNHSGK
# Description: as §4, §5
# as §5, with “10 µM” for “10”
# [12] = target: PIM1 (Homo sapiens, UniProt P11309); assay: ADP-GLO kinase inhibitory assay, PIM1; format: biochemical
# PIM1, sequence (P11309 whole entry, species assumed): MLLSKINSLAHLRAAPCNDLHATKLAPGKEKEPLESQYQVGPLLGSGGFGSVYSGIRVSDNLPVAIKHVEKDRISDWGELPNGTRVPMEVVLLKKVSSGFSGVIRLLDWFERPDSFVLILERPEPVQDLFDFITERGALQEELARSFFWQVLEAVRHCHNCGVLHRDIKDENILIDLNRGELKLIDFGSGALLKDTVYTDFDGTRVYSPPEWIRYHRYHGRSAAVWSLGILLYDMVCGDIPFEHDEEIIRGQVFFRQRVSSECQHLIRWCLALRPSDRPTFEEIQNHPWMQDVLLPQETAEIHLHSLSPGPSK
# Description: as §4, §5
# as §5, with “10 µM” for “10”
# [13] = target: CAMK2 alpha (Homo sapiens, UniProt Q9UQM7); assay: ADP-GLO kinase inhibitory assay, CAMK2 alpha; format: biochemical
# CAMK2 alpha, sequence (Q9UQM7 whole entry): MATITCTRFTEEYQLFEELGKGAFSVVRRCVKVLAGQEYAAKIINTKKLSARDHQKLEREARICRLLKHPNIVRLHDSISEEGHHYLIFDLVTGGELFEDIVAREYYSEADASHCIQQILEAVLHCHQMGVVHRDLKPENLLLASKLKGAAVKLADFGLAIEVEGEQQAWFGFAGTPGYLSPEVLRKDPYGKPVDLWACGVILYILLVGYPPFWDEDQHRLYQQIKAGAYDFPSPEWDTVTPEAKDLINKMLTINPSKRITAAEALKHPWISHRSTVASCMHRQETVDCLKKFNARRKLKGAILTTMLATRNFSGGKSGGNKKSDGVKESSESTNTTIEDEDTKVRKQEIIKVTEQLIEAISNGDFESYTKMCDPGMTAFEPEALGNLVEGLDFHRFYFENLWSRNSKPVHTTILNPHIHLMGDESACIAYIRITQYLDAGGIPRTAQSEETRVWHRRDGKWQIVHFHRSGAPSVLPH
# Description: as §4, §5
# as §5, with “10 µM” for “10”
compound,measurement,setting,value
"O=C(Nc1cccc(C(F)(F)F)c1)c1cccnc1Nc1cccc(C(F)(F)F)c1 [C6, N-(3-(Trifluoromethyl)phenyl)-2-((3-(trifluoromethyl)phenyl)amino)nicotinamide]",IC50,[1],5.53 ± 0.82 µM
same,inhibition at 100 µM,[1],90.5 ± 3.8%
same,IC50,[2],9.99 ± 1.58 µM
same,inhibition at 100 µM,[2],91.3 ± 3.7%
same,cytotoxic effect / inhibition activity in words,[3],good cytotoxic effect; also recorded: higher inhibition activities compared to the control 5-FU
same,"dose-response analysis of cell growth inhibition, in words","[3]; SGC-7901, A875, HepG2, MARC145",significant concentration dependence
same,IC50,"[3]; SGC-7901, A875, HepG2, MARC145, read-out: IC50 values, span over the tested cell lines",5.53 to 12.8 µM
same,"inhibition activity in preliminary screening, in words",[3],good inhibition activity
same,inhibition at 1 µM,[4],10.4%
same,inhibition at 10 µM,[4],-6.77%
same,inhibition at 1 µM,[5],10.2%
same,inhibition at 10 µM,[5],-0.18%
same,inhibition at 1 µM,[6],1.55%
same,inhibition at 10 µM,[6],-3.82%
same,inhibition at 1 µM,[7],28.8%
same,inhibition at 10 µM,[7],17.6%
same,"inhibition of MAPK1, in words",[7],certain inhibitions
same,Inhibition activity (%) AURORA,[8]; 1 µM,4.35%
same,Inhibition activity (%) AURORA,[8]; 10 µM,7.74%
same,inhibition at 1 µM,[9],23.4%
same,inhibition at 10 µM,[9],15%
same,"inhibition of CDK2/A2, in words",[9],certain inhibitions
same,inhibition at 1 µM,[10],6.76%
same,inhibition at 10 µM,[10],-6.1%
same,inhibition at 1 µM,[11],-1.37%
same,inhibition at 10 µM,[11],16.8%
same,inhibition at 1 µM,[12],12.8%
same,inhibition at 10 µM,[12],15.8%
same,inhibition at 1 µM,[13],5.12%
same,inhibition at 10 µM,[13],37.8%
"O=C(Nc1ccc(Cl)nc1)c1cccnc1Nc1cccc(C(F)(F)F)c1 [C11, N-(6-Chloropyridin-3-yl)-2-((3-(trifluoromethyl)phenyl)amino)nicotinamide]",IC50,[1],9.13 ± 3.52 µM
same,inhibition at 100 µM,[1],85.6 ± 4.3%
same,IC50,[2],10.2 ± 2.04 µM
same,inhibition at 100 µM,[2],85.7 ± 2.4%
same,cytotoxic effect / inhibition activity in words,[3],good cytotoxic effect; also recorded: higher inhibition activities compared to the control 5-FU
same,"dose-response analysis of cell growth inhibition, in words","[3]; SGC-7901, A875, HepG2, MARC145",significant concentration dependence
same,"inhibition activity in preliminary screening, in words",[3],good inhibition activity
same,inhibition at 1 µM,[4],13.3%
same,inhibition at 10 µM,[4],-5.21%
same,inhibition at 1 µM,[5],19.5%
same,inhibition at 10 µM,[5],3.66%
same,inhibition at 1 µM,[6],38.2%
same,inhibition at 10 µM,[6],-7.23%
same,"inhibition of CDK1/A2, in words",[6]; at 1 μM,some inhibitions
same,inhibition at 1 µM,[7],24.4%
same,inhibition at 10 µM,[7],7.96%
same,"inhibition of MAPK1, in words",[7],some inhibitions
same,Inhibition activity (%) AURORA,[8]; 1 µM,9.65%
same,Inhibition activity (%) AURORA,[8]; 10 µM,12.58%
same,inhibition at 1 µM,[9],26.8%
same,inhibition at 10 µM,[9],16.7%
same,"inhibition of CDK2/A2, in words",[9],some inhibitions
same,inhibition at 1 µM,[10],18.2%
same,inhibition at 10 µM,[10],3.07%
same,inhibition at 1 µM,[11],2.34%
same,inhibition at 10 µM,[11],10.4%
same,inhibition at 1 µM,[12],23.1%
same,inhibition at 10 µM,[12],10.3%
same,inhibition at 1 µM,[13],5.65%
same,inhibition at 10 µM,[13],-1.53%
